Experimental data reported in US20020137929A1, “1 - (3-heterocyclylphenyl) isothiourea, -isourea, -guanidine and -amidine herbicidal agents” (Intellectual Property Department, BASF Aktiengesellschaft, priority 1998, published 2002).

Key:
ABUTH (Velvetleaf) = test: Postemergence herbicidal evaluation; type: in vivo, Abutilon theophrasti; conditions: postemergence
Method in brief: (§1)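 ~2-wk seedlings; postemergence spray, 40 psi; vehicle 1:1 acetone:water + 0.5% Tween 20; rate ≈0.0156–0.500 kg/ha; greenhouse hold; scored 4–5 wk after treatment, 0–9 scale vs control; repeat tests averaged.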

GALAP (Galium) = test: Preemergence herbicidal evaluation; type: in vivo, Galium aparine; conditions: rated 4-5 weeks after treatment
Method in brief: (§2)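 Rating at 4–5 wk post-spray on a 0–9 visual scale vs control. Application: aqueous acetone, ~0.0156–0.500 kg/ha, to soil surface after seeding, preemergence.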

ZEAMX (Corn, Field) = test: Postemergence herbicidal evaluation; type: in vivo, Zea mays; conditions: postemergence
Method in brief: as §1

CYPIR (Rice Flatsedge) = test: Preemergence weed control under flooded paddy conditions; type: in vivo, Cyperus iria; conditions: rated 3-4 weeks after treatment
Method in brief: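 Seeds or propagules sown in top 0.5 cm of silt loam soil, flooded 1.5 to 3 cm above surface throughout. Compound in 50/50 v/v aqueous/acetone pipetted into flood water at about 0.0313 to 0.500 kg/ha. Visual 0-9 rating versus control after three to four weeks in greenhouse.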

SETVI (Foxtail, Green) [1] = test: Preemergence herbicidal evaluation; type: in vivo, Setaria viridis; conditions: rated 4-5 weeks after treatment
Method in brief: as §2

[2] = test system: CHEAL (Lambsquarters, Common); test: Postemergence herbicidal evaluation; type: in vivo, Chenopodium album; conditions: postemergence
Method in brief: as §1

[3] = test system: TRZAWR (Wheat, Winter, cv Riband); test: Postemergence herbicidal evaluation; type: in vivo, Triticum aestivum; conditions: postemergence
Method in brief: as §1

[4] = test system: GLXMAW (Soybean, Williams); test: Postemergence herbicidal evaluation; type: in vivo, Glycine max, (L.) Merr. cv Williams; conditions: postemergence
Method in brief: as §1

SETVI (Foxtail, Green) [5] = test: Postemergence herbicidal evaluation; type: in vivo, Setaria viridis; conditions: postemergence
Method in brief: as §1

AMBEL (Ragweed, Common) = test: Preemergence herbicidal evaluation; type: in vivo, Ambrosia artemisifolia; conditions: rated 4-5 weeks after treatment
Method in brief: as §2

ORYSAT (Rice, Tebonnet) = test: Postemergence herbicidal evaluation; type: in vivo, Oryza sativa, (L.) Tebonnet; conditions: postemergence
Method in brief: as §1

With COCCOC(=O)CN1C(=O)CSC1=Nc1cc(-n2c(=O)cc(C(F)(F)F)n(C)c2=O)c(F)cc1Cl [Compound 107, 2-Methoxyethyl 2-{{2-chloro-5-[3,6-dihydro-3-methyl-2,6-dioxo-4-(trifluoromethyl)-1(2H)-pyrimidinyl]-4-fluorophenyl}imino}-4-oxo-3-thiazolidineacetate] the “herbicidal rating ABUTH” value (ABUTH (Velvetleaf); rate 0.0158 kg/ha) was 9.0, the “herbicidal rating ABUTH” value (ABUTH (Velvetleaf); rate 0.0315 kg/ha) was 7.0 and the “herbicidal rating ABUTH” value (ABUTH (Velvetleaf); rate 0.0630 kg/ha) was 9.0. The “Preemergence herbicidal rating GALAP” value (GALAP (Galium); rate 0.0313 kg/ha) was 1.0, the “Preemergence herbicidal rating GALAP” value (GALAP (Galium); rate 0.0625 kg/ha) was 1.0 and the “Preemergence herbicidal rating GALAP” value (GALAP (Galium); rate 0.1250 kg/ha) was 7.0. For the same molecule, the “Preemergence herbicidal rating GALAP” value (GALAP (Galium); rate 0.2500 kg/ha) was 7.0, the “herbicidal rating ZEAMX” value (ZEAMX (Corn, Field); rate 0.0158 kg/ha) was 4.0 and the “herbicidal rating ZEAMX” value (ZEAMX (Corn, Field); rate 0.0315 kg/ha) was 6.0. For the same molecule, the “herbicidal rating ZEAMX” value (ZEAMX (Corn, Field); rate 0.0630 kg/ha) was 7.0, the “CYPIR herbicidal effect rating” value (CYPIR (Rice Flatsedge); 0.0313 kg/ha) was 0.0 and the “CYPIR herbicidal effect rating” value (CYPIR (Rice Flatsedge); 0.0625 kg/ha) was 0.0. For the same molecule, the “CYPIR herbicidal effect rating” value (CYPIR (Rice Flatsedge); 0.1250 kg/ha) was 4.0, the “CYPIR herbicidal effect rating” value (CYPIR (Rice Flatsedge); 0.2500 kg/ha) was 7.0 and the “Preemergence herbicidal rating SETVI” value (SETVI (Foxtail, Green) [1]; rate 0.0313 kg/ha) was 0.0. For the same molecule, the “Preemergence herbicidal rating SETVI” value (SETVI (Foxtail, Green) [1]; rate 0.0625 kg/ha) was 1.0, the “Preemergence herbicidal rating SETVI” value (SETVI (Foxtail, Green) [1]; rate 0.1250 kg/ha) was 0.0 and the “Preemergence herbicidal rating SETVI” value (SETVI (Foxtail, Green) [1]; rate 0.2500 kg/ha) was 7.0. The “herbicidal rating CHEAL” value ([2]; rate 0.0158 kg/ha) was 2.0, the “herbicidal rating CHEAL” value ([2]; rate 0.0315 kg/ha) was 2.0 and the “herbicidal rating CHEAL” value ([2]; rate 0.0630 kg/ha) was 1.0. The “herbicidal rating TRZAWR” value ([3]; rate 0.0158 kg/ha) was 2.0, the “herbicidal rating TRZAWR” value ([3]; rate 0.0315 kg/ha) was 3.0 and the “herbicidal rating TRZAWR” value ([3]; rate 0.0630 kg/ha) was 5.0. The “herbicidal rating GLXMAW” value ([4]; rate 0.0158 kg/ha) was 4.5, the “herbicidal rating GLXMAW” value ([4]; rate 0.0315 kg/ha) was 5.0 and the “herbicidal rating GLXMAW” value ([4]; rate 0.0630 kg/ha) was 5.5. The “herbicidal rating SETVI” value (SETVI (Foxtail, Green) [5]; rate 0.0158 kg/ha) was 1.0, the “herbicidal rating SETVI” value (SETVI (Foxtail, Green) [5]; rate 0.0315 kg/ha) was 9.0 and the “herbicidal rating SETVI” value (SETVI (Foxtail, Green) [5]; rate 0.0630 kg/ha) was 9.0. For the same molecule, the “Preemergence herbicidal rating AMBEL” value (AMBEL (Ragweed, Common); rate 0.0313 kg/ha) was 0.0, the “Preemergence herbicidal rating AMBEL” value (AMBEL (Ragweed, Common); rate 0.0625 kg/ha) was 0.0 and the “Preemergence herbicidal rating AMBEL” value (AMBEL (Ragweed, Common); rate 0.1250 kg/ha) was 0.0. The “Preemergence herbicidal rating AMBEL” value (AMBEL (Ragweed, Common); rate 0.2500 kg/ha) was 2.0, the “herbicidal rating ORYSAT” value (ORYSAT (Rice, Tebonnet); rate 0.0158 kg/ha) was 2.0 and the “herbicidal rating ORYSAT” value (ORYSAT (Rice, Tebonnet); rate 0.0315 kg/ha) was 2.0. The “herbicidal rating ORYSAT” value (ORYSAT (Rice, Tebonnet); rate 0.0630 kg/ha) was 4.5.

For CCOC(=O)CN1C(=O)C(C(=O)OCC)SC1=Nc1cc(-n2c(=O)cc(C(F)(F)F)n(C)c2=O)c(F)cc1Cl (centres unmarked) [Compound 127, 5-Carboxy-2-{{2-chloro-5-[3,6-dihydro-3-methyl-2,6-dioxo-4-(trifluoromethyl)-1(2H)-pyrimidinyl]-4-fluorophenyl}imino}-4-oxo-3-thiazolidineacetic acid, diethyl ester], the “herbicidal rating ABUTH” value (ABUTH (Velvetleaf); rate 0.0156 kg/ha) was 9.0, the “herbicidal rating ABUTH” value (ABUTH (Velvetleaf); rate 0.0313 kg/ha) was 9.0 and the “herbicidal rating ABUTH” value (ABUTH (Velvetleaf); rate 0.0625 kg/ha) was 9.0. The “herbicidal rating ABUTH” value (ABUTH (Velvetleaf); rate 0.1250 kg/ha) was 9.0, the “Preemergence herbicidal rating GALAP” value (GALAP (Galium); rate 0.0313 kg/ha) was 0.0 and the “Preemergence herbicidal rating GALAP” value (GALAP (Galium); rate 0.0625 kg/ha) was 3.0. The “Preemergence herbicidal rating GALAP” value (GALAP (Galium); rate 0.1250 kg/ha) was 3.0, the “Preemergence herbicidal rating GALAP” value (GALAP (Galium); rate 0.2500 kg/ha) was 7.0 and the “Preemergence herbicidal rating GALAP” value (GALAP (Galium); rate 0.5000 kg/ha) was 9.0. The “herbicidal rating ZEAMX” value (ZEAMX (Corn, Field); rate 0.0156 kg/ha) was 4.5, the “herbicidal rating ZEAMX” value (ZEAMX (Corn, Field); rate 0.0313 kg/ha) was 4.5 and the “herbicidal rating ZEAMX” value (ZEAMX (Corn, Field); rate 0.0625 kg/ha) was 7.0. For the same molecule, the “herbicidal rating ZEAMX” value (ZEAMX (Corn, Field); rate 0.1250 kg/ha) was 8.0, the “herbicidal effect rating, CYPIR” value (CYPIR (Rice Flatsedge); 0.0313 kg/ha) was 2.0 and the “herbicidal effect rating, CYPIR” value (CYPIR (Rice Flatsedge); 0.0625 kg/ha) was 2.0. For the same molecule, the “herbicidal effect rating, CYPIR” value (CYPIR (Rice Flatsedge); 0.1250 kg/ha) was 4.0, the “herbicidal effect rating, CYPIR” value (CYPIR (Rice Flatsedge); 0.2500 kg/ha) was 4.0 and the “Preemergence herbicidal rating SETVI” value (SETVI (Foxtail, Green) [1]; rate 0.0313 kg/ha) was 0.0. The “Preemergence herbicidal rating SETVI” value (SETVI (Foxtail, Green) [1]; rate 0.0625 kg/ha) was 0.0, the “Preemergence herbicidal rating SETVI” value (SETVI (Foxtail, Green) [1]; rate 0.1250 kg/ha) was 9.0 and the “Preemergence herbicidal rating SETVI” value (SETVI (Foxtail, Green) [1]; rate 0.2500 kg/ha) was 9.0. The “Preemergence herbicidal rating SETVI” value (SETVI (Foxtail, Green) [1]; rate 0.5000 kg/ha) was 9.0, the “herbicidal rating CHEAL” value ([2]; rate 0.0156 kg/ha) was 4.0 and the “herbicidal rating CHEAL” value ([2]; rate 0.0313 kg/ha) was 4.0. The “herbicidal rating CHEAL” value ([2]; rate 0.0625 kg/ha) was 9.0, the “herbicidal rating CHEAL” value ([2]; rate 0.1250 kg/ha) was 9.0 and the “herbicidal rating TRZAWR” value ([3]; rate 0.0156 kg/ha) was 2.5. For the same molecule, the “herbicidal rating TRZAWR” value ([3]; rate 0.0313 kg/ha) was 2.5, the “herbicidal rating TRZAWR” value ([3]; rate 0.0625 kg/ha) was 3.5 and the “herbicidal rating TRZAWR” value ([3]; rate 0.1250 kg/ha) was 6.0. For the same molecule, the “herbicidal rating GLXMAW” value ([4]; rate 0.0156 kg/ha) was 5.0, the “herbicidal rating GLXMAW” value ([4]; rate 0.0313 kg/ha) was 5.5 and the “herbicidal rating GLXMAW” value ([4]; rate 0.0625 kg/ha) was 7.5. The “herbicidal rating GLXMAW” value ([4]; rate 0.1250 kg/ha) was 9.0, the “herbicidal rating SETVI” value (SETVI (Foxtail, Green) [5]; rate 0.0156 kg/ha) was 0.0 and the “herbicidal rating SETVI” value (SETVI (Foxtail, Green) [5]; rate 0.0313 kg/ha) was 1.0. The “herbicidal rating SETVI” value (SETVI (Foxtail, Green) [5]; rate 0.0625 kg/ha) was 7.0, the “herbicidal rating SETVI” value (SETVI (Foxtail, Green) [5]; rate 0.1250 kg/ha) was 9.0 and the “Preemergence herbicidal rating AMBEL” value (AMBEL (Ragweed, Common); rate 0.0313 kg/ha) was 0.0. The “Preemergence herbicidal rating AMBEL” value (AMBEL (Ragweed, Common); rate 0.0625 kg/ha) was 0.0, the “Preemergence herbicidal rating AMBEL” value (AMBEL (Ragweed, Common); rate 0.2500 kg/ha) was 5.0 and the “Preemergence herbicidal rating AMBEL” value (AMBEL (Ragweed, Common); rate 0.5000 kg/ha) was 9.0. For the same molecule, the “herbicidal rating ORYSAT” value (ORYSAT (Rice, Tebonnet); rate 0.0156 kg/ha) was 0.5, the “herbicidal rating ORYSAT” value (ORYSAT (Rice, Tebonnet); rate 0.0313 kg/ha) was 0.5 and the “herbicidal rating ORYSAT” value (ORYSAT (Rice, Tebonnet); rate 0.0625 kg/ha) was 0.5. For the same molecule, the “herbicidal rating ORYSAT” value (ORYSAT (Rice, Tebonnet); rate 0.1250 kg/ha) was 2.5.
